Values after ≈ are worked out from the molar mass of the structure shown.
Experiments:
Vibrio cholerae = experiment: Antibacterial activity against Vibrio cholerae ATCC 14035 incubated for 24 hr followed by compound washout measured after 24 hr by dilution method; format: functional
Staphylococcus aureus = experiment: Antibacterial activity against Staphylococcus aureus ATCC 25923 incubated for 24 hr followed by compound washout measured after 24 hr by dilution method; format: functional

Compound	MIC (Vibrio cholerae) [µM]	MIC (Staphylococcus aureus) [µM]	MIC (Vibrio cholerae; ATCC 14035, 24 h) [µM]	MIC (Staphylococcus aureus; ATCC 25923, 24 h) [µM]
GENTAMICIN	0.0134	0.274		
C#C[C@@]1(OC(=O)CCC(=O)O[C@H]2CC[C@@]3(C)C(=CC[C@H]4[C@@H]5CC[C@H](C(C)=O)[C@@]5(C)CC[C@@H]43)C2)CC[C@H]2[C@@H]3CCC4=Cc5oncc5C[C@]4(C)[C@H]3CC[C@@]21C [DANAZOL-PREGNENOLONE]			1.32 (≈ 0.972 µg/mL)	0.663 (≈ 0.488 µg/mL)
CO/N=C(\C(=O)N[C@@H]1C(=O)N2C(C(=O)O)=C(COC(C)=O)CS[C@H]12)c1csc(N)n1 [CEFOTAXIME]			0.523 (≈ 0.238 µg/mL)	0.261 (≈ 0.119 µg/mL)
O=C(O)c1cn(C2CC2)c2cc(N3CCNCC3)c(F)cc2c1=O [CIPROFLOXACIN]			3.01 (≈ 0.997 µg/mL)	0.377 (≈ 0.125 µg/mL)
C#C[C@@]1(OC(=O)CCC(=O)O[C@H]2CC[C@@]3(C)C(=CC[C@H]4[C@@H]5CC[C@H](C(C)=O)[C@@]5(C)CC[C@@H]43)C2)CC[C@H]2[C@@H]3CCC4=C(CNCCN)c5oncc5C[C@]4(C)[C@H]3CC[C@@]21C			1.23 (≈ 0.994 µg/mL)	1.23 (≈ 0.994 µg/mL)

— ChEMBL document CHEMBL3044900, “Synthesis of pregnenolonedanazolethylendiamine conjugate: relationship between descriptors log P, , R m, and V m and its antibacterial activity in S. aureus and V. cholerae” (2011)
